Legend:
[1] = test system: human CD3+ T cells; conditions: 1-10 μM; anti-CD3/anti-CD28 microbead stimulation; cited from earlier work
[2] = test system: delayed type hypersensitivity to methylated BSA; conditions: mice; cited from earlier work
[3] = test system: imiquimod-induced psoriasis; conditions: mice; cited from earlier work
[4] = test system: peripheral blood mononuclear cells; test: Flow cytometry of peripheral blood mononuclear cells of a breast cancer patient receiving PFK-158; format: in vivo, human; conditions: after 1 week, persisted through treatment
Experimental: An unexpected stability of tumors in multiple patients receiving PFK-158 at doses that were considered to be sub-therapeutic has been observed. […] This breast adenocarcinoma patient received 96 mg/M^2 of PFK-158 every other day for three weeks followed by a one week rest—this cycle was repeated for a total of four cycles. Peripheral blood mononuclear cells were collected on days 1, 8, 15, 22 and 62 and flow cytometry was conducted for a multitude of immunosuppressive cells and activated T cells. […] These cells are the main CD8+ T cells that can infiltrate tumors and differentiate into cytolytic T cells which kill tumor cells. […]
Given the decrease in Th17 cells and increase in effector CD8^+ T cells observed after PFK-158 administration, the ability of PFK-158 to cause an increase in terminally-differentiated CD8^+ effector cells was examined. CD8^+CD57^+CD27^− TCD28^− The breast cancer patient described in Example 7 was administered PFK-158 for 1 cycle and PBMCs were collected at baseline, day 8, 15, 22, and then analyzed for CD8^+CD57^+CD27^− TCD28^− T cells and PD-1. […]
CD57 is a terminally sulfated carbohydrate that is selectively expressed on antigen-specific, and functionally competent memory/effector CD8^+ T cells. […] PBMCs were collected at baseline, day 8, 15, and 22 and CD8^+CD57^+CD27^− CD28^− T cells were analyzed for CD57 expression. […]

[5] = test system: Th17 cells; test: IL-17A production (ELISA) during in vitro Th17 differentiation; format: cell-based, human; conditions: PFK-158 every two days of culture, FIG. 17E,F
From the text: (§1) The differentiation of Th17 cells from naïve CD4^+ T cells was induced and, for γδT17 cells, naïve Vγ9Vδ2 T cells were isolated from healthy donors and polarized into IL-17 producing γ6T cells using established methods.
(§2) Human naïve CD4^+ T cells differentiated into Th17 cells or sorted human naïve Vγ9Vδ2 T cells were polarized in vitro and analyzed for PFKFB2-4 mRNA (FIG. 17 A,B), F26BP, and PFKFB3 protein (FIG. 17 C,D). The CD4^+ T cells (during in vitro Th17 differentiation) and Vγ9Vδ2 T cells (during in vitro polarization) were exposed to vehicle (DMSO) or the indicated concentrations of PFK-158 (every two days of the culture period) and IL-17A production was quantified by ELISA (FIG. 17 E,F).

[6] = test system: γδT17 cells; test: IL-17A production (ELISA) during in vitro polarization of Vγ9Vδ2 T cells; format: cell-based, human; conditions: PFK-158 every two days of culture, FIG. 17E,F
From the text: as §1, §2

[7] = test system: cancer patients; test: Phase 1 trial of PFK-158 in cancer patients (clinical response, tolerability); format: in vivo
Experimental: A phase 1 trial of PFK-158 in cancer patients is currently being conducted at Georgetown University, UT Southwestern, Md. Anderson Cancer Center and the U. of Louisville (clinicaltrials.gov# NCT02044861). […] Institutional investigators have observed partial tumor regressions in 3 patients with ocular melanoma, ovarian cancer and renal cell carcinoma and de novo stabilization of tumor burden in 2 patients (breast and adenoid cystic carcinoma). A person with ocular melanoma was administered 24 mg/M^2 in cohort 1 of the phase 1 trial of PFK-158—a dose that is markedly lower than that required to cause the known cytotoxic effects of PFK-158. […] Over the course of six months of therapy, several of the patient's hepatic metastases first became necrotic after 2 monthly cycles (hypoattenuation appears dark on CT imaging) and then shrunk after 6 cycles (FIG. 18).
The patient was administered PFK-158 for 4 cycles and their bony metastases were deemed to be stable (FIG. 19, left two panels) and several liver metastases became necrotic (FIG. 19, right panel).
(§3) 18 cancer patients completed 2 cycles of 24-470 mg/M^2 PFK-158; 5 of these patients experienced stabilization of their disease (i.e. no growth and no new tumors) and tumor regressions have been observed in multiple patients. For example, a person with renal cell carcinoma who had progressed after all available FDA-approved agents including mTOR and VEGFR inhibitors and IL-2 entered the study (470 mg/M^2). They experienced stabilization of disease by immune-related response criteria (26% reduction in maximum diameters) with multiple tumors regressing and has entered their seventh month of treatment. Of these 18 patients, immunophenotyping by flow cytometry on 4 patients' PBMCs has been carried out. These four patients were administered PFK-158 for 2 weeks and PBMCs were collected at baseline, day 15, and then analyzed by flow cytometry for CD3+CD4+il-17+ cells and CD8+CD137+ T cells.

[8] = test system: PBMCs; test: Immunophenotyping by flow cytometry of PBMCs of 4 metastatic cancer patients; format: in vivo, human; conditions: of 4 patients; after 15 days of administration
Experimental: as §3

| Structure (SMILES) | stimulation of F2,6BP synthesis, 2-[1-14C]-deoxy-D-glucose uptake, lactate secretion, TNF-α secretion and T cell aggregation and proliferation [1] | development of delayed type hypersensitivity to methylated BSA [2] | development of imiquimod-induced psoriasis [3] | increase in circulating cancer-reactive CD8+/CD57+/CD27-/CD28- T cells [4] [%] | concentration reducing IL-17A, fold less than required to inhibit neoplastic and endothelial cells growth [5] [fold] | concentration reducing IL-17A, fold less than required to inhibit neoplastic and endothelial cells growth [6] [fold] | patients with de novo stabilization of tumor burden ([7]; breast and adenoid cystic carcinoma) [patients] | patients with partial tumor regressions ([7]; ocular melanoma, ovarian cancer and renal cell carcinoma) [patients] | patients with stabilization of their disease ([7]; of 18 cancer patients who completed 2 cycles of 24-470 mg/M^2) [patients] | reduction in maximum diameters (immune-related response criteria) ([7]; person with renal cell carcinoma, 470 mg/M^2) [%] | maximum tolerated dose ([7]; phase 1 trial, entered cohort 7, currently at 650 mg/M^2) | patients with a reduction in frequency of Th17 cells [8] [patients] |
| --- | --- | --- | --- | --- | --- | --- | --- | --- | --- | --- | --- | --- |
| O=C(C=Cc1cccnc1)c1ccncc1 [3PO, 3-(3-pyridinyl)-1-(4-pyridinyl)-2-propen-1-one] | markedly attenuated | suppressed | suppressed |  |  |  |  |  |  |  |  |  |
| O=C(/C=C/c1ccc2ccc(C(F)(F)F)cc2n1)c1ccncc1 [PFK-158, (E)-1-(pyridyn-4-yl)-3-(7-(trifluoromethyl)quinolin-2-yl)-prop-2-en-1-one] |  |  |  | 36 | ~10 | ~10 | 2 | 3 | 5 | 26 | without reaching a maximum tolerated dose | 4 |
